Measured values from PubChem BioAssay (NCI).
Several values for one entry are separate records, joined by “and”; a condition that tells them apart may be missing. Equal entries are not always repeated.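 Test compounds were applied to cells in 96-well plates for 48 hours at 5 doses. GI50: concentration for 50% inhibition of growth. TGI is the concentration that stops growth completely.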

What was measured:
Experiment in all cases: growth of human tumour cells (NCI), 48 h
[1] = tested on: A549 NSCLC
[2] = tested on: HT29 colon
[3] = tested on: K-562 leukemia
[4] = tested on: NCI-H23 lung
[5] = tested on: NCI-H460 lung
[6] = tested on: NCI/ADR-RES ovarian
[7] = tested on: SF-268 CNS
[8] = tested on: SK-OV-3 ovarian
[9] = tested on: SN12C renal
[10] = tested on: SNB-19 CNS

O=C(c1ccccc1)c1c(NCC(O)CN2CCOCC2)n(Cc2ccccc2)c(=O)n(Cc2ccccc2)c1=O (stereo not drawn)
GI50 [1]: 35.7 µM
TGI [1]: > 100 µM
GI50 [2]: 26.4 µM
TGI [2]: > 62.9 µM
GI50 [3]: 42.2 µM
TGI [3]: > 100 µM
GI50 [4]: 1.19 µM
GI50 [5]: 42.9 µM
TGI [5]: > 100 µM
GI50 [6]: 2.17 µM
TGI [6]: > 27.4 µM
GI50 [7]: > 79.8 µM
TGI [7]: > 100 µM
GI50 [8]: > 29.9 µM
TGI [8]: > 70.1 µM
GI50 [9]: 46 µM
TGI [9]: > 100 µM
GI50 [10]: 19.1 µM
TGI [10]: > 84.7 µM

Cc1cc(O)c(C2=NN(c3ccc(S(N)(=O)=O)cc3)C(c3ccc(Cl)cc3)C2)c(C)c1Cl (stereo not drawn)
GI50 [1]: 5.91 µM
TGI [1]: 22.5 µM
GI50 [2]: 3.3 µM
TGI [2]: 11 µM
GI50 [3]: 2.24 µM
TGI [3]: 11.5 µM
GI50 [4]: 5.82 µM
TGI [4]: 19.9 µM
GI50 [5]: 2.53 µM
TGI [5]: 7.24 µM
GI50 [6]: 4.63 µM
TGI [6]: 17 µM
GI50 [7]: 5.76 µM
TGI [7]: 19.4 µM
GI50 [8]: 7.75 µM
TGI [8]: 20.6 µM
GI50 [9]: 5.71 µM
TGI [9]: 19.2 µM
GI50 [10]: 12.4 µM
TGI [10]: 24.9 µM

c1cncc(CNCc2cccnc2)c1
TGI [1]: > 100 µM
TGI [2]: > 100 µM
TGI [3]: > 100 µM
TGI [4]: > 100 µM
TGI [5]: > 100 µM
TGI [6]: > 100 µM
TGI [7]: > 100 µM
TGI [8]: > 100 µM
TGI [9]: > 100 µM
TGI [10]: > 100 µM

CN(C)c1nc2ccccc2c2c1c1c(n2Cc2ccccc2)-c2ccccc2C1=O
GI50 [1]: > 100 µM
TGI [1]: > 100 µM
GI50 [2]: 12.2 µM
TGI [2]: > 100 µM
GI50 [3]: > 100 µM
TGI [3]: > 100 µM
GI50 [4]: > 100 µM
TGI [4]: > 100 µM
GI50 [5]: > 100 µM
TGI [5]: > 100 µM
GI50 [6]: > 100 µM
TGI [6]: > 100 µM
GI50 [7]: > 100 µM
TGI [7]: > 100 µM
GI50 [8]: > 100 µM
TGI [8]: > 100 µM
GI50 [9]: > 100 µM
TGI [9]: > 100 µM
GI50 [10]: > 100 µM
TGI [10]: > 100 µM

O=C(Oc1ccc(CO[N+](=O)[O-])cc1)c1ccccc1
GI50 [1]: 1.23 µM
TGI [1]: 2.49 µM
GI50 [2]: 0.136 µM
TGI [2]: 0.27 µM
GI50 [3]: 0.0708 µM
TGI [3]: 0.325 µM
GI50 [4]: 0.351 µM
TGI [4]: 1.43 µM
GI50 [5]: 0.239 µM
TGI [5]: 1.09 µM
GI50 [6]: 0.195 µM
TGI [6]: 0.434 µM
GI50 [7]: 0.167 µM
TGI [7]: 0.317 µM
GI50 [8]: 0.348 µM
TGI [8]: 1.3 µM
GI50 [9]: 0.216 µM
TGI [9]: 0.701 µM
GI50 [10]: 0.202 µM
TGI [10]: 0.706 µM

CC(C)=CCC(OC(=O)C=C(C)C)C1=CC(=O)c2c(O)ccc(O)c2C1=O (stereo not drawn)
TGI [1]: 18.7 µM
GI50 [2]: 2.49 µM
TGI [2]: 8.41 µM and 4.43 µM
GI50 [3]: 0.0709 µM
TGI [3]: 1.13 µM and 1.35 µM
GI50 [4]: 2.46 µM and 1.06 µM
TGI [4]: 7.06 µM and 2.96 µM
GI50 [5]: 5.21 µM
TGI [5]: 21.1 µM and 6.53 µM
GI50 [6]: 3.68 µM
TGI [6]: 29.5 µM and 3.16 µM
GI50 [7]: 3.35 µM
TGI [7]: 9.83 µM and 4.06 µM
GI50 [8]: 21.2 µM
TGI [8]: 49.8 µM and 12.4 µM
GI50 [9]: 1.9 µM
TGI [9]: 3.94 µM and 2.92 µM
GI50 [10]: 21.9 µM
TGI [10]: 40.2 µM and 15.3 µM

Cc1nc(Nc2ccccn2)sc1C(=O)/C=C/c1ccc(Cl)cc1
GI50 [1]: 0.426 µM
TGI [1]: > 100 µM
GI50 [2]: 0.47 µM
TGI [2]: 47.5 µM
GI50 [3]: 0.395 µM
TGI [3]: > 100 µM
GI50 [4]: 0.567 µM
TGI [4]: > 100 µM
GI50 [5]: 0.353 µM
TGI [5]: > 100 µM
GI50 [6]: 0.34 µM
TGI [6]: > 100 µM
GI50 [7]: 0.974 µM
TGI [7]: > 100 µM
GI50 [8]: 0.494 µM
TGI [8]: > 100 µM
GI50 [9]: 0.547 µM
TGI [9]: > 47.4 µM
GI50 [10]: 0.556 µM
TGI [10]: > 100 µM
